# Data as given in patent US3935313A, “Pharmaceutical composition containing N-(3-diethyl-aminopropyl)-4-nitro-1-oxide-pyridine-2-carboxamide and process for the treatment of hypertension therewith” (Aron-Samuel; Jan Marcel Didier, priority 1971, dated 1976).
# Columns and labels:
# [1] = tested on: dogs made hypertensive by the bilateral destruction of the sensory endings of the sino-carotid area; experiment: Anti-hypertensive effect in dogs with destroyed sino-carotid sensory endings; assay type: in vivo
# Source text: (§1) The anti-hypertensive effect was investigated:
# 1. in dogs made hypertensive by the bilateral destruction of the sensory endings of the sino-carotid area;
# hypertensive subjects [2] = experiment: Treatment of hypertensive subjects with the compound in combination with other anti-hypertensive materials; assay type: in vivo, Man
# Experimental: Combinations of the compound of this invention with other anti-hypertensiveagents were also investigated.
# The most important combination is that with diuretic drugs, as predicted from the efficiency data provided by the pharmacological investigation. A reduction of the dosage of compound of about 50% and/or a three-fold duration of the action are obtained.
# Dosage of compound administered: 5 tablets containing 400 mg active compound daily during 30 days. Associated treatment: salt-free diet, potassium chloride, furosemide: one 40 mg tablet, 3 times a week.
# Dosage of compound administered: 5 tablets containing 400 mg active material, daily during 30 days. Associated treatment: potassium chloride, altizide: 15 mg; spironolactone: 25 mg.
# Treatment during one month with the compound of this invention: 4 tablets daily, containing each 400 mg active ingredient, taken two at a time, plus 4 tablets daily of α-methyl dopa, containing each 250 mg active ingredient, taken two at a time.
# Teratogenicity in rats = assay type: in vivo; settings: 600 mg/kg
# [3] = Chronic toxicity, 6 months, Rhesus monkeys; assay type: in vivo; settings: up to maximum dose tested 400 mg/kg
# normotensive subjects = experiment: Effects in normotensive subjects; assay type: in vivo, Man
# Experimental: Prior to the therapeutic tests, toxicological and clinical pharmacological investigations were conducted in normotensive Man. […] The systolic pressure is depressed by 2 to 4 cm of mercury, while the diastolic pressure is depressed by 2 cm, on the average.
# Dosage of compound administered: 1 tablet containing 400 mg active ingredient during 1 week, 2 tablets during 1 week, 3 tablets during 3 weeks.
# Dosage of compound administered: 1 tablets containing 400 mg active ingredient during 3 weeks, 2 tablets during the 5 following weeks.
# [4] = Chronic toxicity, 6 months, rats; assay type: in vivo; settings: up to maximum dose tested 400 mg/kg
# [5] = tested on: rats made hypertensive by implantation of two 25 mg deoxycorticosterone pellets combined with a sodium enriched diet; experiment: Anti-hypertensive effect in deoxycorticosterone/sodium hypertensive rats; assay type: in vivo
# Experimental: as §1
# 2. in rats made hypertensive by implantation of two 25 mg deoxycorticosterone pellets combined with a sodium enriched diet;
# hypertensive subjects [6] = experiment: Therapeutic effects in hypertensive subjects, compound alone
# Procedure: About a hundred patients were treated with the compound during several months.
# The compound was tested alone at dosages from 300 mg to 5 g daily. […] The results just set forth relate to determinations made with the patients in a recumbent position.
# [7] = tested on: rats made hypertensive according to Goldblatt's method; experiment: Anti-hypertensive effect in Goldblatt hypertensive rats; assay type: in vivo
# Source text: as §1
# 3. in rats made hypertensive according to Goldblatt's method (unilateral renal arterial constriction with contralateral nephrectomy).
# [8] = tested on: patients with true hypertension; experiment: Clinical experimentation involving 22 hospital patients; assay type: in vivo, Man; settings: of 22 patients; criteria: systolic L1, diastolic L2
# Experimental: Clinical experimentation involving 22 hospital patients.
# Procedure: The patients selected suffer from true hypertension involving both systolic pressure and diastolic pressure. Before starting treatment with the compound, it was ascertained, during a period of time of 8 days, in the absence of any hypotensive treatment, that this hypertension was stable in the morning, at noon and in the evening, in standing, sitting and recumbent positions.
# 1. Effect on blood pressure: the result was evaluated on the basis of the blood pressure depression, expressed as cm of mercury, according to the following criteria: Result Nil Fair Good Very good __________________________________________________________________________ Systolic pressure depression 0 < 3 cm 3-4 cm > 4 cm Diastolic pressure depression 0 <1.5 cm 1.5-2 cm >2 cm __________________________________________________________________________
# 2. Effect on functional signs: headaches, dizziness, floating specks, ear buzzing.
# [9] = Acute toxicity (method of Lichtfield and Wilcoxon); settings: in vivo
# Source text: The compound used for such tests is the hydrochloride (LA 2511).
# [10] = Teratogenicity in rabbits; assay type: in vivo; settings: 200 mg/kg
# hypertensive subjects [11] = experiment: Treatment of a hypertensive patient with α-methyldopa alone; assay type: in vivo, Man; settings: TRU... Yves
# Experimental: Strong functional signs (headaches, dizziness). Treated during one month with α-methyldopa: 2, then 4, then 6 tablets per day, containing each 250 mg active ingredient.
# [12] = GAU... Albert, 5 x 400 mg daily 30 days + altizide 15 mg, spironolactone 25 mg, potassium chloride, prior 21/13
# [13] = GAU... Albert, + altizide, spironolactone
# [14] = SUF... Auguste, 5 x 400 mg daily 30 days + furosemide 40 mg 3 times a week, potassium chloride, salt-free diet, prior 24/12
# [15] = TRU... Yves, 4 x 400 mg daily + α-methyldopa 4 x 250 mg daily, one month, after α-methyldopa alone 21/111/2
# [16] = combination with diuretic drugs
# [17] = oral, 200 mg to 5 g daily, normotensive
# [18] = fraction of subjects, alone, 300 mg to 5 g daily, recumbent
# [19] = more than half the subjects, alone, 300 mg to 5 g daily, recumbent
# [20] = one-fourth of the patients, alone, 300 mg to 5 g daily, recumbent
# [21] = use as anti-hypertensive material in Man
smiles,measurement,setting,value
"CCN(CC)CCCNC(=O)c1cc([N+](=O)[O-])cc[n+]1[O-] [LA 2511, N-(3-diethylaminopropyl)-4-nitro-1-oxide-pyridine-2-carboxamide]",anti-hypertensive efficiency in combination with diuretics,"[1]; in combination with diuretics, stated for the experimental hypertension models together",efficiency is extended
same,anti-hypertensive efficiency,[1]; sino-carotid denervated hypertensive dogs,substantial consistent efficiency
same,"blood pressure after treatment, standing","hypertensive subjects [2]; GAU... Albert, 5 x 400 mg daily 30 days + altizide 15 mg, spironolactone 25 mg, potassium chloride, prior 20/121/2",14/9
same,"blood pressure after treatment, recumbent",hypertensive subjects [2]; [12],16/10
same,"blood pressure after treatment, sitting",hypertensive subjects [2]; [12],16/10
same,digestive tolerance,hypertensive subjects [2]; [13],Fair digestive tolerance
same,systemic tolerance,hypertensive subjects [2]; [13],Very good systemic tolerance
same,functional signs,"hypertensive subjects [2]; GAU... Albert, + altizide, spironolactone, floating specks, headaches, dizziness, ear-buzzing",Improvement of the functional signs
same,"blood pressure after treatment, sitting",hypertensive subjects [2]; [14],18/10
same,"blood pressure after treatment, standing",hypertensive subjects [2]; [14],17/9
same,"blood pressure after treatment, recumbent","hypertensive subjects [2]; SUF... Auguste, 5 x 400 mg daily 30 days + furosemide 40 mg 3 times a week, potassium chloride, salt-free diet, prior 24/13",18/10
same,digestive and systemic tolerance,"hypertensive subjects [2]; SUF... Auguste, + furosemide",Very good digestive and systemic tolerance
same,functional signs,"hypertensive subjects [2]; SUF... Auguste, + furosemide, floating specks, headaches, ear-buzzing",Marked decrease of the functional signs
same,"blood pressure after treatment, standing","hypertensive subjects [2]; TRU... Yves, 4 x 400 mg daily + α-methyldopa 4 x 250 mg daily, one month, after α-methyldopa alone 20/11",18/9
same,"blood pressure after treatment, recumbent",hypertensive subjects [2]; [15],19/101/2
same,"blood pressure after treatment, sitting",hypertensive subjects [2]; [15],19/10
same,functional signs,"hypertensive subjects [2]; TRU... Yves, + α-methyldopa, particularly the headaches",Marked decrease of the functional signs
same,duration of the action,hypertensive subjects [2]; [16],three-fold
same,reduction of the dosage of compound,hypertensive subjects [2]; [16],about 50%
same,efficiency of combination with diuretics,hypertensive subjects [2]; combination with diuretics,particularly efficient combination
same,safety of combination,hypertensive subjects [2]; combined with other anti-hypertensive materials currently used,safely be combined
same,teratogenic effect,Teratogenicity in rats,No teratogenic effect
same,toxic effect on chronic treatment,[3],no toxic effect
same,"blood pressure after treatment, recumbent, evening","normotensive subjects; CHA... Paul, 400 mg tablets, 1 for 3 weeks, 2 for 5 weeks, initial 13/8",11/6
same,"blood pressure after treatment, recumbent, morning","normotensive subjects; CHA... Paul, 400 mg tablets, 1 for 3 weeks, 2 for 5 weeks, initial 14/8",12/6
same,tolerance,"normotensive subjects; CHA... Paul, 8 weeks",Excellent tolerance
same,tolerance,"normotensive subjects; VUI... Robert, 5 weeks",Excellent tolerance
same,depression of the blood pressure,normotensive subjects; [17],moderate gradual depression
same,influence on the heart,normotensive subjects; [17],No deleterious influence
same,systolic pressure depression,normotensive subjects; [17],2 to 4 cm of mercury
same,diastolic pressure depression,"normotensive subjects; oral, 200 mg to 5 g daily, normotensive, on the average",2 cm
same,depression of blood pressure under orthostatic conditions,"normotensive subjects; oral, 200 mg to 5 g daily, normotensive, orthostatic",more substantial depression
same,modifications in the electrocardiogram and numerous biological tests,"normotensive subjects; oral, 200 mg to 5 g daily, blood count, sedimentation rate, phosphatases, transaminases, azotemia, glycemia, creatinine clearance, ions, lipids etc.",No modifications were ever noted
same,toxic effect on chronic treatment,[4],no toxic effect
same,anti-hypertensive efficiency,[5],substantial consistent efficiency
same,systemic tolerance,hypertensive subjects [6]; BLA... Isaac,Very good systemic tolerance
same,taste on intake of the tablet,hypertensive subjects [6]; BLA... Isaac,Bitter taste
same,"blood pressure after treatment, recumbent","hypertensive subjects [6]; BLA... Isaac, 6 then 4 tablets of 400 mg daily, 15 days each, prior 20/13",19/1
same,"blood pressure after treatment, sitting","hypertensive subjects [6]; BLA... Isaac, 6 then 4 tablets of 400 mg daily, 15 days each, prior 20/121/2",19/10
same,"blood pressure after treatment, standing","hypertensive subjects [6]; BLA... Isaac, 6 then 4 tablets of 400 mg daily, 15 days each, prior 191/2/10",141/2/10
same,tolerance,hypertensive subjects [6]; PER... Robert,Excellent tolerance
same,"blood pressure after treatment, sitting","hypertensive subjects [6]; PER... Robert, 2, 4, then 6 tablets of 400 mg per day, 28 days, prior 21/12",161/2/10
same,"blood pressure after treatment, standing","hypertensive subjects [6]; PER... Robert, 2, 4, then 6 tablets of 400 mg per day, 28 days, prior 201/2/12",17/10
same,"blood pressure after treatment, recumbent","hypertensive subjects [6]; PER... Robert, 2, 4, then 6 tablets of 400 mg per day, 28 days, prior 211/2/12",15/10
same,functional signs,"hypertensive subjects [6]; PER... Robert, headaches, ear-buzzing",Disappearance of the functional signs
same,return of blood pressure to former levels after interruption,hypertensive subjects [6]; after interruption of administration,3 to 4 days
same,onset of the depression,"hypertensive subjects [6]; alone, 300 mg to 5 g daily",within a few hours or a few days
same,troublesome orthostatic hypotension induced fits of faintness,"hypertensive subjects [6]; alone, 300 mg to 5 g daily",None of the subjects
same,blood pressure in standing position,"hypertensive subjects [6]; alone, 300 mg to 5 g daily, standing","more highly depressed, becoming close to normal or even attaining the normal value"
same,side-effect,hypertensive subjects [6]; disappear when ingested in the middle of a meal and/or dosage decreased,a few cases of gastric pains and nausea
same,patients with moderate depression,"hypertensive subjects [6]; fraction of patients, alone, 300 mg to 5 g daily, recumbent",One-fourth
same,hypertensive subjects with substantial depression of the blood pressure,hypertensive subjects [6]; [18],more than half
same,subjects non-influenced,hypertensive subjects [6]; [18],Less than one-fourth
same,diastolic pressure depression in subjects with substantial depression,hypertensive subjects [6]; [19],> 2 cm of mercury
same,systolic pressure depression in subjects with substantial depression,hypertensive subjects [6]; [19],> 4 cm of mercury
same,diastolic pressure depression in patients with moderate depression,hypertensive subjects [6]; [20],about 1 cm
same,systolic pressure depression in patients with moderate depression,hypertensive subjects [6]; [20],about 2 cm
same,action,"hypertensive subjects [6]; oral, 200 mg to 5 g daily",rapid but gradual action
same,toxicity and tolerance,"hypertensive subjects [6]; oral, 200 mg to 5 g daily","free from toxicity, well tolerated"
same,"effects on blood pressure versus diuretic drugs, α-methyldopa and other hypotensive agents",hypertensive subjects [6]; particularly with respect to the diastolic pressure,much more rapid and much more positive
same,effect on the diastolic pressure in Man,hypertensive subjects [6]; [21],well established
same,efficiency in Man,hypertensive subjects [6]; [21],excellent efficiency
same,toxicity in Man,hypertensive subjects [6]; [21],free from toxicity
same,anti-hypertensive efficiency,[7],substantial consistent efficiency
same,"number of ""fair"" results",[8],5 results
same,"number of ""good"" and ""very good"" results",[8],13 results
same,"number of ""nil"" results",[8],4 results
same,LD50,[9],2000 mg/kg
same,teratogenic effect,[10],No teratogenic effect
C[C@](N)(Cc1ccc(O)c(O)c1)C(=O)O [α-methyldopa],"blood pressure after treatment with α-methyldopa, standing","hypertensive subjects [11]; 2, 4, then 6 tablets of 250 mg per day, one month, prior 22/12",20/11
same,"blood pressure after treatment with α-methyldopa, recumbent","hypertensive subjects [11]; 2, 4, then 6 tablets of 250 mg per day, one month, prior 23/12",21/111/2
same,"blood pressure after treatment with α-methyldopa, sitting","hypertensive subjects [11]; 2, 4, then 6 tablets of 250 mg per day, one month, prior 23/111/2",21/111/2
same,functional signs,"hypertensive subjects [11]; α-methyldopa alone, headaches, dizziness",Slight decrease of the functional signs
